Laboratory results as given in the supplement of paper PMC12463676, “Small-molecule dissolution of stress granules by redox modulation benefits ALS models” (Nature Chemical Biology, 2025).

Tests used:
potassium arsenate = compound: O=[As]([O-])(O)O.[K+] [potassium arsenate]; assay: thermal stability z-score vs DMSO; higher = more thermally stabilized by treatment; conditions: HeLa; arsenate concentration 1 mM
Protocol: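 Cellular thermal proteome profiling in HeLa cells treated with 1 mM arsenate for 1 h (DMSO pretreatment), heated to ten temperatures (37-66.3 °C). Soluble protein was quantified by TMT mass spectrometry relative to DMSO controls; the thermal stability score was transformed to a z-score; mean of n = 3 experiments.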

lipoamide = compound: NC(=O)CCCCC1CCSS1 [lipoamide]; assay: as above; conditions: HeLa, lipoamide concentration 100 µM
Protocol: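 Cellular thermal proteome profiling in HeLa cells. Cells were treated with 100 µM lipoamide for 1 h, with or without 1 mM arsenate for a further 1 h, then heated to ten temperatures (37-66.3 °C), and soluble protein was quantified by TMT mass spectrometry relative to 0.1% DMSO controls. The thermal stability score (sum of log2 fold changes minus the abundance score) was transformed to a z-score; mean of n = 3 experiments.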

[1] = arsenate co-treatment: 1 mM arsenate 1 h
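Note: each temperature applied for 3 min, abundance score taken as mean log2 fold change at the two lowest temperatures, z-score obtained by mean subtraction and division by SD.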

UniProt P16383, sequence (P16383 whole entry): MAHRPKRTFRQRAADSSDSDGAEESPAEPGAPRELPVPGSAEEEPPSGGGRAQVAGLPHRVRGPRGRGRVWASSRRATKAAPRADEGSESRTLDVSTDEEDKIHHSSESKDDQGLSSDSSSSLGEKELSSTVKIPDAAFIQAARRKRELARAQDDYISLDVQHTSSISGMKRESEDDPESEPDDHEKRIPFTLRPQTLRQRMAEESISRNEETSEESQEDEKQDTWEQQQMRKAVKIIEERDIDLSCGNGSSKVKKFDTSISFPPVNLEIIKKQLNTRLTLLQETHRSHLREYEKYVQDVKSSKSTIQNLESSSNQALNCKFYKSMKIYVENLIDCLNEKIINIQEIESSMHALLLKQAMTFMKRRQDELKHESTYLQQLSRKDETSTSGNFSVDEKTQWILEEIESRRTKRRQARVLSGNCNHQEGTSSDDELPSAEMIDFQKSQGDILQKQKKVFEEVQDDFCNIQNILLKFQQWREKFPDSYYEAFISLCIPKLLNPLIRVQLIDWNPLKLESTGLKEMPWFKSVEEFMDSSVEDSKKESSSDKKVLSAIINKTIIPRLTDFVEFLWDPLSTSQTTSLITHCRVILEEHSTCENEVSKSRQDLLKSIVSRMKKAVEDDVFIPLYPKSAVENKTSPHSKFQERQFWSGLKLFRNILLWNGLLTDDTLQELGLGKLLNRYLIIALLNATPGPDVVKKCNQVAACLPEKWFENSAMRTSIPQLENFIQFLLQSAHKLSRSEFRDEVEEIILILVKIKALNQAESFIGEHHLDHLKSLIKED
UniProt P40855, sequence (P40855 whole entry, one chain of several): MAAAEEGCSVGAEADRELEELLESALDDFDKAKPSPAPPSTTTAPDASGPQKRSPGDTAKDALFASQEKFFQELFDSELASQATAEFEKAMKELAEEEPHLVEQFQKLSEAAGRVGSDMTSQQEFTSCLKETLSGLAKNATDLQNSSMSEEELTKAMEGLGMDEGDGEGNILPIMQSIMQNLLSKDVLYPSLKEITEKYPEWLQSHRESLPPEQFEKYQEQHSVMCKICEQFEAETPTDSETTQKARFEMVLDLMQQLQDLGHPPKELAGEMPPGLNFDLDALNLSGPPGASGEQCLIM
UniProt Q96CN9, sequence (Q96CN9 whole entry): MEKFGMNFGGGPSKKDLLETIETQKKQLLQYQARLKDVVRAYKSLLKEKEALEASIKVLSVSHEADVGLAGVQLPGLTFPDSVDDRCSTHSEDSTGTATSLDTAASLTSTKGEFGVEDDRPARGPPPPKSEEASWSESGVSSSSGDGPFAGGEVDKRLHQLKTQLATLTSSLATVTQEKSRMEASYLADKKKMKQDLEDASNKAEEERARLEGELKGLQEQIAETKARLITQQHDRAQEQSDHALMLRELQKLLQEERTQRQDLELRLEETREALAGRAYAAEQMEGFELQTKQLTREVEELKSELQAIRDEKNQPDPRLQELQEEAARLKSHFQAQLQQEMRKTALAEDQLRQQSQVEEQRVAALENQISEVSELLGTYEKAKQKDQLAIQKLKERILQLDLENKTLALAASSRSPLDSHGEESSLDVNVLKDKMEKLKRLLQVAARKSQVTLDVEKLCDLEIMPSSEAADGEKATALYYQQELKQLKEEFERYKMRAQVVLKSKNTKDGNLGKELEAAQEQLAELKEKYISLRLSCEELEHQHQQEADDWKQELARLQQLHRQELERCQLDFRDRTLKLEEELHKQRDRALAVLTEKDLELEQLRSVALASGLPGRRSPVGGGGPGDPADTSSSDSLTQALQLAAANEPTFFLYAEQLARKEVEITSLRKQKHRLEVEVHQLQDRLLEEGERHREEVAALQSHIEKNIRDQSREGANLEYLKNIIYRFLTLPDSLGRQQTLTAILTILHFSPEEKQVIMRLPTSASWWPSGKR
UniProt O60353, sequence (O60353 whole entry): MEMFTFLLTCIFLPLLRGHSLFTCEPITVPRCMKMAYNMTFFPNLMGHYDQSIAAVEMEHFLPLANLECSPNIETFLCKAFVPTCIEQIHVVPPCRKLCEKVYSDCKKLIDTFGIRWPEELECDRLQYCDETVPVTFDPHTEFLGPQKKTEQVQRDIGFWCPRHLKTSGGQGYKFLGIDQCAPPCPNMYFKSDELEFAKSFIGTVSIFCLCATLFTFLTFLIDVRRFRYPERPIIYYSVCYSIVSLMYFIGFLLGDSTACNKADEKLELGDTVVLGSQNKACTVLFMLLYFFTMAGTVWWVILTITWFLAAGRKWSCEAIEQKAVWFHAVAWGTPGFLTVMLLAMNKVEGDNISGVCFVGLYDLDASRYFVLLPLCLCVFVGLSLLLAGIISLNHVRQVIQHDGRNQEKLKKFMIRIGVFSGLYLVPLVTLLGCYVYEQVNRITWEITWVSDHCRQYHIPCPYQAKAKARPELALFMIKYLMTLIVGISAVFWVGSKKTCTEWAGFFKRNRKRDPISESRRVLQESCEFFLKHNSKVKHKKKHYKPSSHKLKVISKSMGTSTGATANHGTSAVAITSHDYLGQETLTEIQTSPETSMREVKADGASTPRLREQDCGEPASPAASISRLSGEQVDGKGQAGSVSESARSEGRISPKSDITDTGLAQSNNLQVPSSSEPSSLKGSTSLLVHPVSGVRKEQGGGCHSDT
UniProt A6NHX0, sequence (A6NHX0 whole entry): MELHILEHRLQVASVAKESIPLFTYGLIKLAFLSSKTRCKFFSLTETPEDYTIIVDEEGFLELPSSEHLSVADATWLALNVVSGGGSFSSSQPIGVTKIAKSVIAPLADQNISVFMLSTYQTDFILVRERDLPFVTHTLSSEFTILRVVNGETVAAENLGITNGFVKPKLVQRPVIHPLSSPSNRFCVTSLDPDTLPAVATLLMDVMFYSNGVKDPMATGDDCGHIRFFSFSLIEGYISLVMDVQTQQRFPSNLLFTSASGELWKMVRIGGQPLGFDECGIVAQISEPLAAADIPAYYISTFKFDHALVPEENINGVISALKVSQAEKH
UniProt Q8TB36, sequence (Q8TB36 whole entry): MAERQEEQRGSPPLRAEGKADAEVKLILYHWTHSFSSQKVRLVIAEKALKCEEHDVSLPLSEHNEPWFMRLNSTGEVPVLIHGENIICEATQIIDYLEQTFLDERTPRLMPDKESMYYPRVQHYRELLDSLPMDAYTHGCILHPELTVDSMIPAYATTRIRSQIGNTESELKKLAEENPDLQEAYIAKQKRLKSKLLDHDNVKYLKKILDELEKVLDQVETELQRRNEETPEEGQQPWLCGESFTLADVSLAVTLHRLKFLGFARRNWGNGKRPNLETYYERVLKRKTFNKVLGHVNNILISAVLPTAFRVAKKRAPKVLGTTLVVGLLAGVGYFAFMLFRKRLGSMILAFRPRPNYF
UniProt Q8WXD5, sequence (Q8WXD5 whole entry): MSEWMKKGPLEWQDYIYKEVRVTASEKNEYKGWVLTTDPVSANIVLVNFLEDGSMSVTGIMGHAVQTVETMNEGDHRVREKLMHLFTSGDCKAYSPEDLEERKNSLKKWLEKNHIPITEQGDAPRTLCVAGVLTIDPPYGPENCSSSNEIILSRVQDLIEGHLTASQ
UniProt Q9UN86, sequence (Q9UN86 whole entry): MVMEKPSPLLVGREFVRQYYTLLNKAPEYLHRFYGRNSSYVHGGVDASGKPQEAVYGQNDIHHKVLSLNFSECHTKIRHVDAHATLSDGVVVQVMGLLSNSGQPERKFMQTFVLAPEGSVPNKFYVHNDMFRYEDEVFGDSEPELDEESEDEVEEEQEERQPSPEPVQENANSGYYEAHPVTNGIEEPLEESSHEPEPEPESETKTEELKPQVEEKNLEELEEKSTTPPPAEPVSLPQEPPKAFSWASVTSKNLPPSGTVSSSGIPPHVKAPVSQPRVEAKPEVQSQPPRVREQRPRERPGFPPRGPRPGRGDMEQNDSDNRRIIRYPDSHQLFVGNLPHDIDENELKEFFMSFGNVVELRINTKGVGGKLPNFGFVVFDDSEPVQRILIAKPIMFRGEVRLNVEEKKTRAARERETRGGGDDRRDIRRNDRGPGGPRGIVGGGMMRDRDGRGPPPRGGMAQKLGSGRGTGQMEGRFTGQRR
UniProt P22466, sequence (P22466 whole entry): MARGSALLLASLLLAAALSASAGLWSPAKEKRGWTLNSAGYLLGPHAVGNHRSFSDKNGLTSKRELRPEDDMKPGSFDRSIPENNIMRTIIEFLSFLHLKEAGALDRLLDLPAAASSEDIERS
UniProt O14893, sequence (O14893 whole entry): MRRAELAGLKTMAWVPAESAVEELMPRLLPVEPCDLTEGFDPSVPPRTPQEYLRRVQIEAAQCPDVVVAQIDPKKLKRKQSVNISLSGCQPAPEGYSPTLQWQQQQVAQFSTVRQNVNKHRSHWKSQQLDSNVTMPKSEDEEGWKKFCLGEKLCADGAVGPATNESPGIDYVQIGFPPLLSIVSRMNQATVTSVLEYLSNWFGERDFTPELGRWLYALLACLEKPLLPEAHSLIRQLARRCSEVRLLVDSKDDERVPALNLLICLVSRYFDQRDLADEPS
UniProt Q13283, sequence (Q13283 whole entry, looked up): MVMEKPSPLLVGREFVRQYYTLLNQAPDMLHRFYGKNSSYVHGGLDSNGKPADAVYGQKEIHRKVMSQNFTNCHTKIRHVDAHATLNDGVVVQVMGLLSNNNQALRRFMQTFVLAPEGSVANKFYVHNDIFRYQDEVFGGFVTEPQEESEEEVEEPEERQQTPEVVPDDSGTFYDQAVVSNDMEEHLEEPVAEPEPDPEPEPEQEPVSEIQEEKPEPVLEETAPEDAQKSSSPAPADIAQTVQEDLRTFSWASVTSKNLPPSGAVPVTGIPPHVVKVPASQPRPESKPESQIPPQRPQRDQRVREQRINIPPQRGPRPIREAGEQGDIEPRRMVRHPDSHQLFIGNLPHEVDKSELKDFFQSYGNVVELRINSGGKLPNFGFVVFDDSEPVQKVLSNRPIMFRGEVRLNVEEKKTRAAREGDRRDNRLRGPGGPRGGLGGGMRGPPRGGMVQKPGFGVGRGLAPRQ
UniProt P23434, sequence (P23434 whole entry): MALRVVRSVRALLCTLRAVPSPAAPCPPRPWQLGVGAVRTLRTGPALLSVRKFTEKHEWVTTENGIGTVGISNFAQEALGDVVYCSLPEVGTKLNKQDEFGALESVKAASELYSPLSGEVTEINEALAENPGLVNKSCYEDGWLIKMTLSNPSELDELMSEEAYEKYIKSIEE

Target	thermal stability z-score (potassium arsenate)	thermal stability z-score (lipoamide; [1])	thermal stability z-score (lipoamide; arsenate co-treatment: none)
FYN (UniProt P06241)	-1.04	0.0671	-0.0839
FZD2 (UniProt Q14332)	0.0158	-1.45	-1.01
FZD6 (UniProt O60353)	0.376	-1.56	-1.7
G3BP1 (UniProt Q13283)	0.753	0.523	0.664
G3BP2 (UniProt Q9UN86)	0.561	-0.0281	-0.411
G3V3G9 (UniProt P40855)	-0.695	-0.319	-0.13
G6PD (UniProt P11413)	0.535	0.218	0.206
GAA (UniProt P10253)	-0.00416	-0.154	0.311
GAB1 (UniProt Q13480)	-0.0474	-0.149	0.0158
GABARAP (UniProt O95166)	-0.223	-0.21	-0.417
GABARAPL1 (UniProt Q9H0R8)	-0.849	-1.22	-2.02
GABARAPL2 (UniProt P60520)	0.209	0.14	-0.266
GABPA (UniProt Q06546)	4.54	-0.201	-0.185
GABPB1 (UniProt Q06547)	5.01	0.17	0.498
GADD45GIP1 (UniProt Q8TAE8)	0.432	0.954	0.379
GAK (UniProt O14976)	0.475	0.338	-0.0197
GAL (UniProt P22466)	-0.0332	0.135	-0.122
GALE (UniProt Q14376)	-2.31	0.0359	-0.161
GALK1 (UniProt P51570)	-0.534	-0.559	-0.412
GALK2 (UniProt Q01415)	-0.778	0.547	-0.155
GALNS (UniProt P34059)	0.274	0.346	0.41
GALNT1 (UniProt Q10472)	-0.187	-0.568	-0.256
GALNT2 (UniProt Q10471)	0.25	-1.83	-1.16
GALNT6 (UniProt Q8NCL4)	-0.396	-0.515	-0.683

Target	thermal stability z-score (potassium arsenate)	thermal stability z-score (lipoamide; [1])	thermal stability z-score (lipoamide; arsenate co-treatment: none)
GALNT7 (UniProt Q86SF2)	0.187	0.205	-0.0334
GALNT10 (UniProt Q86SR1)	0.557	-0.462	0.0888
GALT (UniProt P07902)	0.174	-0.362	-0.325
GAMT (UniProt Q14353)	-0.0271	-0.374	0.506
GAN (UniProt Q9H2C0)	-0.167	0.0625	-0.31
GANAB (UniProt Q14697)	0.696	-3.91	-3.13
GAPDH (UniProt P04406)	-1.5	-1.1	-0.00491
GAPVD1 (UniProt Q14C86)	0.0188	-0.367	-0.206
GAR1 (UniProt Q9NY12)	-0.376	-0.515	-0.354
GARS (UniProt P41250)	-0.919	-0.224	-0.223
GART (UniProt P22102)	-0.419	0.221	-0.0107
GATAD2A (UniProt Q86YP4)	-0.412	-0.0451	-0.00448
GATAD2B (UniProt Q8WXI9)	-0.539	0.511	0.315
GATB (UniProt O75879)	0.0266	0.0276	0.115
GATSL2 (UniProt A6NHX0)	-0.242	0.724	-1.44
GBA (UniProt P04062)	0.33	-0.361	-0.352
GBAS (UniProt O75323)	-0.187	0.0991	0.0331
GBE1 (UniProt Q04446)	-0.956	-0.395	0.344
GBF1 (UniProt Q92538)	0.452	-0.598	-0.0839
GCAT (UniProt O75600)	1.38	-0.752	-1.04
GCC1 (UniProt Q96CN9)	-0.179	-0.192	-0.169
GCC2 (UniProt Q8IWJ2)	0.827	-0.88	-0.098
GCDH (UniProt Q92947)	-0.202	0.711	0.198
GCFC2 (UniProt P16383)	-0.00138	0.317	0.441

Target	thermal stability z-score (potassium arsenate)	thermal stability z-score (lipoamide; [1])	thermal stability z-score (lipoamide; arsenate co-treatment: none)
GCHFR (UniProt P30047)	0.0269	-0.485	-0.374
GCLC (UniProt P48506)	1.56	0.874	0.402
GCLM (UniProt P48507)	2.05	1.62	0.394
GCN1 (UniProt Q92616)	0.522	-0.244	0.292
GCNT2 (UniProt Q8N0V5)	-0.125	0.367	-0.158
GCSH (UniProt P23434)	-1.45	0.134	-0.126
GDA (UniProt Q9Y2T3)	0.0168	0.244	0.292
GDAP1 (UniProt Q8TB36)	-0.354	-0.141	-0.313
GDAP2 (UniProt Q9NXN4)	-0.255	-0.0509	-0.305
GDE1 (UniProt Q9NZC3)	-1.38	-0.631	-0.947
GDI1 (UniProt P31150)	-0.353	0.00835	-0.013
GDI2 (UniProt P50395)	-0.47	0.452	0.275
GDPD1 (UniProt Q8N9F7)	-1.05	-0.226	-0.624
GDPD3 (UniProt Q7L5L3)	0.114	0.187	-0.422
GDPGP1 (UniProt Q6ZNW5)	-0.786	-0.332	-0.511
GEMIN2 (UniProt O14893)	-0.345	-0.139	-0.0485
GEMIN4 (UniProt P57678)	-0.0793	-0.347	-0.228
GEMIN5 (UniProt Q8TEQ6)	-0.93	-0.411	-0.402
GEMIN6 (UniProt Q8WXD5)	-0.129	0.0364	-0.18
GEMIN8 (UniProt Q9NWZ8)	-0.0475	0.0342	-0.0734
GET4 (UniProt Q7L5D6)	0.752	-0.844	-0.0598
GFER (UniProt P55789)	0.816	0.239	0.231
GFM1 (UniProt Q96RP9)	-1.15	-0.469	0.0798
